The target in assay [1] is T1, Human GHSR (Homo sapiens, UniProt Q92847). Put plainly: GHSR Antagonist BACMAM FLIPR Assay (Method B). The settings on record: U2OS cells transduced with human GHSR BACMAM virus, EC80 hGhrelin, accurate to within ±0.5. On the set-up: The full-length gene was transferred into pCDN for expression analysis; expressed in transfected cells; host or cells: U2OS cells transduced with human GHSR BacMam virus (pFastBacmam, CMV promoter). It counts as cell-based. The source says:
Human GHS-R was cloned from human hypothalamus cDNA and TOPO Ta cloned into pCR2.1. The sequence was confirmed. The full-length gene was transferred into pCDN for expression analysis. The sequence was confirmed again and the plasmid was electroporated into CHO cells. The clones were screened by FLIPR. The open reading frame of GHS-R was transferred from pCDN into pFastBacmam vector. This vector was used to generate recombinant baculoviruses in which the insect cell-specific polyhedrin promoter has been replaced with a mammalian cell-active promoter, in this case CMV. This was then used with the Bac to Bac expression system (Invitrogen). Briefly the vector was transformed into DH10 bac E. coli and the bacmid isolated from the transformed cells. The bacmid was then transfected into Sf9 insect cells grown in ExCell 420 (JRH) medium in 6-well dishes for the production of recombinant baculovirus particules. 24 hours prior to assay U2OS cells at confluence 100% were harvested and spun down. The supernatant was removed and the cells resuspended in media (DMEM+10% FBS+1% L-Glutamine). […] Human GHSR BACMAM virus was added to the cell suspension at an appropriate % volume (calculated for individual batches of BACMAM virus as viral titres vary). […] Maximum changes in fluorescence were plotted and curves fitted using a 4-parameter logistic equation to generate pIC50 values.

Assay [2] addresses T1, Human GHSR. Put plainly: GHSR Agonist BACMAM FLIPR Assay (Method Y). It counts as cell-based. Set-up: The full-length gene was transferred into pCDN for expression analysis; expressed in transfected cells; host or cells: U2OS cells transduced with human GHSR BacMam virus (pFastBacmam, CMV promoter). The settings on record: U2OS cells transduced with human GHSR BACMAM virus, accurate to within ±0.5. The source says: Human GHS-R was cloned from human hypothalamus cDNA and TOPO Ta cloned into pCR2.1. The sequence was confirmed. The full-length gene was transferred into pCDN for expression analysis. The sequence was confirmed again and the plasmid was electroporated into CHO cells. The clones were screened by FLIPR. The open reading frame of GHS-R was transferred from pCDN into pFastBacmam vector. This vector was used to generate recombinant baculoviruses in which the insect cell-specific polyhedrin promoter has been replaced with a mammalian cell-active promoter, in this case CMV. This was then used with the Bac to Bac expression system (Invitrogen). Briefly the vector was transformed into DH10 bac E. coli and the bacmid isolated from the transformed cells. […] Human GHSR BACMAM virus was added to the cell suspension at an appropriate % volume (calculated for individual batches of BACMAM virus as viral titres vary). […] The plates were placed in a FLuorimetric Imaging Plate Reader (FLIPR, Molecular Devices) where 10 μl of compound was added to the cells and fluorescence measurements were taken. […] Intrinsic activity of the compounds was calculated by using the maximum asymptote of it's concentration response curve relative to the maximum asymptote of the hGhrelin concentration response curve.

For assay [3], the target named is T1, Human GHSR. Briefly: GHS-R GTPγS functional antagonist assay. It counts as biochemical. On the set-up: The full-length gene was transferred into pCDN for expression analysis; expressed in transfected cells; host or cells: CHO cells (electroporated, pCDN) or HEK293T cells (transient, pcDNA3); membranes prepared from the cultured cells. The settings on record: membranes of HEK293T cells transiently expressing GHS-R; human Ghrelin at EC80; [35S]GTPγS SPA. The method, then:
Human GHS-R was cloned from human hypothalamus cDNA and TOPO Ta cloned into pCR2.1. The sequence was confirmed. The full-length gene was transferred into pCDN for expression analysis. The sequence was confirmed again and the plasmid was electroporated into CHO cells. The clones were screened by FLIPR.
HEK293T cells (HEK293 cells stably expressing the SV40 large T-antigen) were maintained in DMEM containing 10% (v/v) newborn calf serum and 2 mM glutamine. Cells were seeded in 60 mm culture dishes and grown to 60-80% confluency (18-24 h) prior to transfection with pcDNA3 containing the relevant DNA species using Lipofectamine reagent. […]
The plate was then incubated on a shaker at room temperature for 30 mins followed by centrifugation for 5 mins at 1500 rpm. The plate was read between 3 and 6 hours after completion of centrifuge run in a Wallac Microbeta counter on a 1 min normalised tritium count protocol. Data was analysed using a 4-parameter logistic equation. […]
Protocol as described above for functional agonist assay, except prior to addition of the [35-S], 10 ul of human Ghrelin solution in assay buffer was added to give a final concentration equating to EC80 (determined for each assay).
On the technique in general: GTPγS is a poorly hydrolysed GTP analogue; its binding reports G protein activation.

Structures are written as SMILES. Counter-ions that a name gives are not always drawn. A value given as a limit tells only on which side of the number the result lay.

T1 sequence (Q92847 whole entry): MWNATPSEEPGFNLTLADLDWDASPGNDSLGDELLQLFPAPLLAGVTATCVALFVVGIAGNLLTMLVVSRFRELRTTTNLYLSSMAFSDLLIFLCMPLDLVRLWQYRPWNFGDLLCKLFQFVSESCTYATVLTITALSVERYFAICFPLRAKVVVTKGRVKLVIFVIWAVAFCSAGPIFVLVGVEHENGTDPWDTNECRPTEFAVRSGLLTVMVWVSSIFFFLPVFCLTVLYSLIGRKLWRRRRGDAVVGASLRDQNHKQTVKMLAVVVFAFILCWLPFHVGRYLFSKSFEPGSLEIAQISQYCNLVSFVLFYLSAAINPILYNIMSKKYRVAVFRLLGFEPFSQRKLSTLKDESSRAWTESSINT

For the molecule `CN1CCN([C@@H](C(=O)NCc2cc(Cl)cc(Cl)c2)c2cccc3ccccc23)CC1` [Compound 3, (2R)-N-[(3,5-dichlorophenyl)methyl]-2-(4-methyl-1-piperazinyl)-2-(1-naphthalenyl)ethanamide hydrochloride], the IC50 (usually the midpoint of a concentration-inhibition curve) against Human GHSR [1] was 10 nM. Moreover, the half-maximal effective concentration (EC50) (usually the concentration that produces a half-maximal response) on Human GHSR [2] was above 2000 nM. The inhibitory constant (Ki) – broadly, the dissociation constant of the complex between target and ligand, obtained from inhibition or displacement – on Human GHSR [3] is below 10 nM.
As for `CN1CCN(C(C(=O)NCc2cc(Cl)cc(Cl)c2)c2cccc3ccccc23)CC1` (racemic) [Compound 1, (±)-N-[(3,5-dichlorophenyl)methyl]-2-(4-methyl-1-piperazinyl)-2-(1-naphthalenyl)ethanamide], the inhibition constant Ki at Human GHSR [3] is below 10 nM.

(Values after patent publication US20100267734A1, “N-[(3,5-DICHLOROPHENYL)METHYL]-2-(4-METHYL-1-PIPERAZINYL)-2-(1-NAPHTHALENYL)ETHANAMIDE AS GHRELIN RECEPTOR MODULATOR” (Glaxo Group Limited, priority 2007, published 2010).)
